Target: human DGKζ (Homo sapiens (Human), UniProt Q13574)
Experiment: Human DGKζ kinase activity inhibition assay (ADP-Glo)
Type: biochemical
Settings: in vitro human DGKζ kinase activity inhibition assay; read-out: IC50
Method: Human DGKζ Kinase Activity Inhibition Assay. Human diacylglycerol kinase zeta (DGKζ) inhibitory activity of compounds of the present invention was quantified employing the human DGKζ kinase activity assay as described in the following paragraphs. In essence, the enzyme activity was measured by quantification of the adenosine-di-phosphate (ADP) generated as a co-product of the enzyme reaction via the “ADP-Glo™ Kinase Assay” kit from the company Promega. This detection system works as follows: In a first step the adenosine-tri-phosphate (ATP) not consumed in the kinase reaction is quantitatively converted to cyclic adenosine-mono-phosphate (cAMP) employing an adenylate cyclase (“ADP-Glo-reagent”), then the adenylate cyclase is stopped and the ADP generated in the kinase reaction is converted to ATP, which subsequently generates in a luciferase-based reaction a glow-luminescence signal (“Kinase Detection Reagent”). C-terminally FLAG-tagged, recombinant full-length human DGKζ (in house expressed in baculovirus infected insect cells, purified using anti-Flag pulldown and size exclusion chromatography) was used as enzyme. As an alternative, commercially available enzyme by Carnabio can be used. […] Subsequently, 22.55 volumes of a 510 mM solution of octyl-β-D-glucopyranoside (Sigma-Aldrich, Cat. #O8001-10G) in 50 mM MOPS buffer (pH 7.4) were added, and the mixture was sonicated in an ultrasonic bath for 20 s. […] Viewlux™ from Perkin-Elmer). The amount of emitted light was taken as a measure for the amount of ADP generated and thereby for the activity of the DGKζ.

Chain of human DGKζ (Q13574 other isoform, or with tags, fused parts or gaps): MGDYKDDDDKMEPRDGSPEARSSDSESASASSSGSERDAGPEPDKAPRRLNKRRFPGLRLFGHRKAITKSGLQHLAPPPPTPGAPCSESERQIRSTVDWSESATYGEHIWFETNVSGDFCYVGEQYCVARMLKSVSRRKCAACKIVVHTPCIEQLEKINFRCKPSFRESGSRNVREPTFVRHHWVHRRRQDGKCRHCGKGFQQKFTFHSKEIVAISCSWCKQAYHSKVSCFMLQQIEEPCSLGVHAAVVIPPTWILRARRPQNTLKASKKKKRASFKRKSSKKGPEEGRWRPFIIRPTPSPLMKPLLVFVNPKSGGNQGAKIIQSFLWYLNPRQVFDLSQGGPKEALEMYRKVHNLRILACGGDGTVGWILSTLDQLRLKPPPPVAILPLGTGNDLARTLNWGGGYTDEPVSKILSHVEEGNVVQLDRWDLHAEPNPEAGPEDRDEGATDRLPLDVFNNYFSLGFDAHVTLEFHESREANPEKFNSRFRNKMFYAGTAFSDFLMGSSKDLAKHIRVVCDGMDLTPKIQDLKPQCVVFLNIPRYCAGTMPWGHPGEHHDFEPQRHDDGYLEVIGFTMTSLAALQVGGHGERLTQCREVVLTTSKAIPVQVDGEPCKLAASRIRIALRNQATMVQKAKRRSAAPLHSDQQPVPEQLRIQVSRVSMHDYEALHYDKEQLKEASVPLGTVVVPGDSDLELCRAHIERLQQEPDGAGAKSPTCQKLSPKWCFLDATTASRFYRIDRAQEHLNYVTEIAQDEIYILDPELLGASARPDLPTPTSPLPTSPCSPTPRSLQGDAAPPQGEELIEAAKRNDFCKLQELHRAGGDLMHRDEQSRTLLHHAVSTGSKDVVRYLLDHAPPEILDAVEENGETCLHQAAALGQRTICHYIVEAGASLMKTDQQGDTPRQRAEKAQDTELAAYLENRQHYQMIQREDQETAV

Structure (SMILES) | IC50 [µM]
CC(C(N)=O)N(c1ccc(F)cc1)c1nc(N)c(C(=O)c2ccc(C(=O)NC3CCCC3)cc2)s1 (racemic) [Example 267, rac-4-[4-amino-2-(N-(2-amino-1-methyl-2-oxo-ethyl)-4-fluoro-anilino)thiazole-5-carbonyl]-N-cyclopentyi-benzamide] | 0.063
CC(C(N)=O)N(c1ccc(N(C)C)cc1)c1nc(N)c(C(=O)c2ccccc2)s1 (racemic) [Example 2, rac-2-[N-(4-amino-5-benzoyl-thiazol-2-yl)-4-(dimethylamino)anilino]propanamide] | 0.935
CC(C(N)=O)N(c1ccc(Cl)c(F)c1)c1nc(N)c(C(=O)c2ccncc2)s1 (single isomer, unassigned) [Example 56.1, 2-(N-[4-amino-5-(pyridine-4-carbonyl)thiazol-2-yl]-4-chloro-3-fluoro-anilino)propanamide] | 0.0505
Cc1cccc(CNC(=O)COc2ccc(C(=O)c3sc(N(c4ccc(F)cc4)C(C)C(N)=O)nc3N)cc2)c1 (racemic) [Example 83, rac-2-(N-[4-amino-5-[4-[2-(m-tolylmethylamino)-2-oxo-ethoxy]benzoyl]thiazol-2-yl]-4-fluoro-anilino)propanamide] | 0.0243
CC(C(N)=O)N(c1ccc(F)c(F)c1)c1nc(N)c(C(=O)c2ccc(NC(=O)OCc3ccccc3)cc2)s1 (single isomer, unassigned) [Example 167.2, Benzyl N-[4-[4-amino-2-(N-(2-amino-1-methyl-2-oxo-ethyl)-3,4-difluoro-anilino)thiazole-5-carbonyl]phenyl]carbamate] | 0.303
CC(C(N)=O)N(c1ccc(F)cc1)c1nc(N)c(C(=O)c2ccc(OCC(=O)N(C)CCCN(C)C)cc2)s1 (racemic) [Example 113, rac-2-(N-(4-amino-5-[4-[2-[3-(dimethylamino)propyl-methyl-amino]-2-oxo-ethoxy]benzoyl]thiazol-2-yl]-4-fluoro-anilino)propanamide] | 0.703
CC(C(N)=O)N(c1ccc(F)c(F)c1)c1nc(N)c(C(=O)c2cccnc2)s1 (racemic) [Example 184, rac-2-(N-[4-amino-5-(pyridine-3-carbonyl)thiazol-2-yl]-3,4-difluoro-anilino)propanamide] | 0.428
CC(C(N)=O)N(c1ccc2c(c1)OC(F)(F)O2)c1nc(N)c(C(=O)c2ccc(OC(F)F)nc2)s1 (racemic) [Example 216, rac-2-[[4-amino-5-[6-(difluoromethoxy)pyridine-3-carbonyl]thiazol-2-yl]-(2,2-difluoro-1,3-benzodioxol-5-yl)amino]propanamide] | 0.032
CC(C(N)=O)N(c1ccc(F)cc1)c1nc(N)c(C(=O)c2ccc(OCC(=O)Nc3ccc(Cl)cc3)cc2)s1 (racemic) [Example 119, rac-2-(N-[4-amino-5-[4-[2-(4-chloroanilino)-2-oxo-ethoxy]benzoyl]thiazol-2-yl]-4-fluoro-anilino)propanamide] | 0.00454
CC(C(N)=O)N(c1ccc(F)cc1)c1nc(N)c(C(=O)c2ccc(OC(C)(C)C(=O)NCc3ccc(Cl)cc3)cc2)s1 (racemic) [Example 273, rac-2-[4-[4-amino-2-(N-(2-amino-1-methyl-2-oxo-ethyl)-4-fluoro-anilino)thiazole-5-carbonyl]phenoxy]-N-[(4-chlorophenyl)methyl]-2-methyl-propanamide] | 0.02
CC(C(N)=O)N(c1ccc(F)cc1)c1nc(N)c(C(=O)c2ccc(Cl)c(C(F)(F)F)c2)s1 (racemic) [Example 10, rac-2-(N-[4-amino-5-[4-chloro-3-(trifluoromethyl)benzoyl]thiazol-2-yl]-4-fluoro-anilino)propanamide] | 0.425
COc1ccc(C(=O)c2sc(N(c3ccc(F)cc3)C(C)C(N)=O)nc2C)cc1 (racemic) [Example 176, rac-2-(4-fluoro-N-[5-(4-methoxybenzoyl)-4-methyl-thiazol-2-yl]anilino)propanamide] | 0.091
CC(C(N)=O)N(c1ccc(F)cc1)c1nc(N)c(C(=O)c2ccncc2)s1 (racemic) [Example 7, rac-2-(N-[4-amino-5-(pyridine-4-carbonyl)thiazol-2-yl]-4-fluoro-anilino)propanamide] | 0.705
COc1ccccc1CNC(=O)COc1ccc(C(=O)c2sc(N(c3ccc(F)cc3)C(C)C(N)=O)nc2N)cc1 (racemic) [Example 94, rac-2-(N-[4-amino-5-[4-[2-[(2-methoxyphenyl)methylamino]-2-oxo-ethoxy]benzoyl]thiazol-2-yl]-4-fluoro-anilino)propanamide] | 0.0257
CC(C(N)=O)N(c1ccc(F)cc1)c1nc(N)c(C(=O)c2ccc(OCC(=O)Nc3ccc(C(N)=O)cc3)cc2)s1 (racemic) [Example 109, rac-4-[[2-[4-[4-amino-2-(N-[2-amino-1-methyl-2-oxo-ethyl]-4-fluoro-anilino)thiazole-5-carbonyl]phenoxy]acetyl]amino]benzamide] | 0.0517

Other lines, results leading:

IC50 [µM] | Structure (SMILES)
0.00176 | CC(C(N)=O)N(c1ccc(Cl)c(F)c1)c1nc(N)c(C(=O)c2ccc(OC(F)F)cc2)s1 (single isomer, unassigned) [Example 48.1, 2-(N-[4-amino-5-[4-(difluoromethoxy)benzoyl]thiazol-2-yl]-4-chloro-3-fluoro-anilino)propanamide]
0.193 | CC(C(N)=O)N(c1ccc(OC(F)F)nc1)c1nc(N)c(C(=O)c2ccccc2)s1 (racemic) [Example 229, rac-2-[(4-amino-5-benzoyl-thiazol-2-yl)-[6-(difluoromethoxy)-3-pyridyl]amino]propanamide]
0.00372 | CC(C(N)=O)N(c1ccc(Cl)c(F)c1)c1nc(N)c(C(=O)c2ccc(OC(F)F)cc2)s1 (racemic) [Example 48, rac-2-(N-[4-amino-5-[4-(difluoromethoxy)benzoyl]thiazol-2-yl]-4-chloro-3-fluoro-anilino)propanamide]
0.0101 | CCOC(=O)COc1ccc(C(=O)c2sc(N(c3ccc(F)cc3)C(C)C(N)=O)nc2N)cc1 (single isomer, unassigned; enantiomer 2) [Example 81.2, ethyl 2-[4-[4-amino-2-(4-fluoro-N-[2-amino-1-methyl-2-oxo-ethyl]anilino)thiazole-5-carbonyl]phenoxy]acetate (enantiomer 2)]
0.129 | CC(C(N)=O)N(c1ccc(Cl)c(F)c1)c1nc(N)c(C(=O)c2ccc(OCc3ccccc3)cc2)s1 (single isomer, unassigned) [Example 166.2, 2-(N-[4-amino-5-(4-benzyloxybenzoyl)thiazol-2-yl]-4-chloro-3-fluoro-anilino)propanamide]
0.09 | CC(C)NC(=O)c1ccc(C(=O)c2sc(N(c3ccc(F)cc3)C(C)C(N)=O)nc2N)cc1 (racemic) [Example 261, rac-4-[4-amino-2-(N-(2-amino-1-methyl-2-oxo-ethyl)-4-fluoro-anilino)thiazole-5-carbonyl]-N-isopropyl-benzamide]
0.00377 | CC(C(N)=O)N(c1ccc(Cl)cc1)c1nc(N)c(C(=O)c2ccc(OC(F)F)cc2)s1 (racemic) [Example 47, rac-2-(N-[4-amino-5-[4-(difluoromethoxy)benzoyl]thiazol-2-yl]-4-chloro-anilino)propanamide]
0.0556 | CC(C)NC(=O)C(C)(C)Oc1ccc(C(=O)c2sc(N(c3ccc(F)cc3)C(C)C(N)=O)nc2N)cc1 (racemic) [Example 154, rac-2-[4-[4-amino-2-(N-(2-amino-1-methyl-2-oxo-ethyl)-4-fluoro-anilino)thiazole-5-carbonyl]phenoxy]-N-isopropyl-2-methyl-propanamide]
0.00276 | CC(C(N)=O)N(c1ccc(F)c(F)c1)c1nc(N)c(C(=O)c2ccc(OC(F)F)cc2)s1 (racemic) [Example 49, rac-2-(N-[4-amino-5-[4-(difluoromethoxy)benzoyl]thiazol-2-yl]-3,4-difluoro-anilino)propanamide]
0.0436 | CC(C(N)=O)N(c1ccc(OC(F)(F)F)cc1)c1nc(N)c(C(=O)c2ccc(F)cc2)s1 (single isomer, unassigned) [Example 27.2, 2-[N-(4-amino-5-(4-fluorobenzoyl)thiazol-2-yl]-4-(trifluoromethoxy)anilino]propanamide]
0.00707 | CC(C(N)=O)N(c1nc(N)c(C(=O)c2ccc(OC(F)F)cc2)s1)c1ccc(Cl)cc1F (racemic) [Example 46, rac-2-(N-[4-amino-5-[4-(difluoromethoxy)benzoyl]thiazol-2-yl]-4-chloro-2-fluoro-anilino)propanamide]
0.101 | CC(C(N)=O)N(c1ccc(F)cc1)c1nc(N)c(C(=O)c2ccc(F)c(F)c2)s1 (racemic) [Example 25, rac-2-(N-[4-amino-5-(3,4-difluorobenzoyl)thiazol-2-yl]-4-fluoro-anilino)propanamide]
0.019 | CCOC(=O)C(C)(C)Oc1ccc(C(=O)c2sc(N(c3ccc(F)cc3)C(C)C(N)=O)nc2N)cc1 (racemic) [Example 39, Rac-ethyl 2-[4-[4-amino-2-(N-[2-amino-1-methyl-2-oxo-ethyl]-4-fluoro-anilino)thiazole-5-carbonyl]phenoxy]-2-methyl-propanoate]
0.009 | COc1ccc(C(=O)c2sc(N(c3ccc(F)c(Cl)c3)C(C)C(N)=O)nc2N)cc1 (single isomer, unassigned) [Example 161.1, 2-(N-[4-amino-5-(4-methoxybenzoyl)thiazol-2-yl]-3-chloro-4-fluoro-anilino)propanamide]

— US11964953B2, “Substituted aminothiazoles as DGKzeta inhibitors for immune activation” (Bayer Aktiengesellschaft, priority 2020, dated 2024)
